{"source": "patent US20100087702A1", "about": "“Composition and method to modify sperm fertility and female gender ratio in mammals” (priority 2008, published 2010)", "origin": "cited, not measured here", "key": {"[1]": {"tested_on": "Hexose Monophosphate Shunt (HMS)", "conditions": "Tiffen et al., 1991"}, "[2]": {"tested_on": "early-staged mouse embryos", "conditions": "Williams, 1986"}}}
{"molecule": "CCN(CC)c1cc2c(cc1C)Nc1ccc(N)cc1O2", "note": "[BCB, 2-methyl-3-diethylamino-7-amino phenoxazine]", "values": [{"measurement": "increase in oxidation of glucose through the HMS", "setting": "[1]", "value": 15, "unit": "fold"}, {"measurement": "toxicity of BCB and its metabolites", "setting": "[2]", "value": "relatively non-toxic"}]}
